Several values for one entry are separate records, joined by “and”; a condition that tells them apart may be missing. Identical values can stand only once.
Experiments:
Experiment in all cases: NCI one-dose screen
Format in all cases: cell-based, human
[1] = tested on: MOLT-4; details: Leukemia MOLT-4, 10 µM single dose
In short: (§1)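 Screening used the full NCI panel of 60 cancer cell lines with compounds dosed once at 10 μM; the reported value is percent growth inhibition versus untreated controls.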

[2] = tested on: SF-295; details: CNS SF-295, 10 µM single dose
In short: (§2)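 At 10 μM, a single concentration, compounds were evaluated for antiproliferative effect in the NCI 60-line screen, with growth expressed relative to untreated control cells.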

[3] = tested on: NCI/ADR-RES; details: Ovarian NCI/ADR-RES, 10 µM single dose
In short: as §2

[4] = tested on: SF-268; details: CNS SF-268, 10 µM single dose
In short: as §1

[5] = tested on: CAKI-1; details: Renal CAKI-1, 10 µM single dose
In short: as §2

[6] = tested on: NCI-H322M; details: NSCLC NCI-H322M, 10 µM single dose
In short: as §2

[7] = tested on: U251; details: CNS U251, 10 µM single dose
In short: (§3)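 Each cell line received compound at 10 μM as part of the NCI one-dose protocol. Values reflect growth inhibition percent calculated from growth relative to untreated controls.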

[8] = tested on: OVCAR-8; details: Ovarian OVCAR-8, 10 µM single dose
In short: as §2

[9] = tested on: NCI-H460; details: NSCLC NCI-H460, 10 µM single dose
In short: as §2

[10] = tested on: LOX IMVI; details: Melanoma LOX IMVI, 10 µM single dose
In short: as §2

[11] = tested on: NCI-H522; details: NSCLC NCI-H522, 10 µM single dose
In short: as §3

[12] = tested on: EKVX; details: NSCLC EKVX, 10 µM single dose
In short: as §3

[13] = tested on: COLO 205; details: Colon COLO 205, 10 µM single dose
In short: as §2

[14] = tested on: SK-MEL-28; details: Melanoma SK-MEL-28, 10 µM single dose
In short: (§4)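 Following the standard NCI-60 protocol, compounds were applied once at 10 μM to all 60 cancer lines. Read-out is percent growth versus untreated controls, expressed as inhibition %.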

[15] = tested on: SR; details: Leukemia SR, 10 µM single dose
In short: as §2

[16] = tested on: HS 578T; details: Breast HS 578T, 10 µM single dose
In short: as §2

[17] = tested on: SW-620; details: Colon SW-620, 10 µM single dose
In short: as §4

[18] = tested on: MDA-MB-231/ATCC; details: Breast MDA-MB-231/ATCC, 10 µM single dose
In short: as §2

[19] = tested on: HCT-116; details: Colon HCT-116, 10 µM single dose
In short: as §2

[20] = tested on: SNB-19; details: CNS SNB-19, 10 µM single dose
In short: (§5)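 One concentration (10 μM) applied to each line of the full NCI-60 panel; percent growth compared against untreated cells.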

[21] = tested on: BT-549; details: Breast BT-549, 10 µM single dose
In short: as §2

[22] = tested on: MCF7; details: Breast MCF7, 10 µM single dose
In short: as §1

[23] = tested on: HOP-62; details: NSCLC HOP-62, 10 µM single dose
In short: as §5

[24] = tested on: MALME-3M; details: Melanoma MALME-3M, 10 µM single dose
In short: as §2

[25] = tested on: DU-145; details: Prostate DU-145, 10 µM single dose
In short: as §2

[26] = tested on: SF-539; details: CNS SF-539, 10 µM single dose
In short: as §1

[27] = tested on: HL-60(TB); details: Leukemia HL-60(TB), 10 µM single dose
In short: as §2

[28] = tested on: NCI-H226; details: NSCLC NCI-H226, 10 µM single dose
In short: as §3

[29] = tested on: ACHN; details: Renal ACHN, 10 µM single dose
In short: as §2

[30] = tested on: SN12C; details: Renal SN12C, 10 µM single dose
In short: as §2

[31] = tested on: RXF 393; details: Renal RXF 393, 10 µM single dose
In short: as §2

[32] = tested on: UACC-62; details: Melanoma UACC-62, 10 µM single dose
In short: as §2

[33] = tested on: OVCAR-3; details: Ovarian OVCAR-3, 10 µM single dose
In short: as §2

[34] = tested on: TK-10; details: Renal TK-10, 10 µM single dose
In short: as §2

[35] = tested on: CCRF-CEM; details: Leukemia CCRF-CEM, 10 µM single dose
In short: as §2

[36] = tested on: PC-3; details: Prostate PC-3, 10 µM single dose
In short: as §4

[37] = tested on: A549/ATCC; details: NSCLC A549/ATCC, 10 µM single dose
In short: as §2

Structure (SMILES)	Growth Percent [1]	Growth Percent [2]	Growth Percent [3]	Growth Percent [4]	Growth Percent [5]	Growth Percent [6]	Growth Percent [7]	Growth Percent [8]	Growth Percent [9]	Growth Percent [10]	Growth Percent [11]	Growth Percent [12]	Growth Percent [13]	Growth Percent [14]	Growth Percent [15]	Growth Percent [16]	Growth Percent [17]	Growth Percent [18]	Growth Percent [19]	Growth Percent [20]	further results
Cc1c(C(=O)NCCC(=O)NO)sc2ncnc(Nc3ccc(F)c(Cl)c3)c12 [Compound 19d, 4–(3-chloro-4-fluorophenylamino)-N-(3-(hydroxyamino)-3-oxopropyl)-5-methylthieno[2,3-d]pyrimidine-6-carboxamide]	115.3% and 115.32%	96.0% and 96.07%	101.4% and 101.46%	96.4% and 96.48%	96.6% and 96.62%	108.1% and 108.11%	102.2% and 102.27%	101.3% and 101.35%	100.4% and 100.44%	98.8% and 98.84%	95.5% and 95.56%	99.4% and 99.43%	117.3% and 117.34%	111.5% and 111.54%	110.82%	103.1% and 103.12%	101.5%	102.5% and 102.53%	107.3%	98.9% and 98.91%	Growth Percent [21]: 113.9% and 113.96%; Growth Percent [22]: 95.1% and 95.18%; Growth Percent [23]: 104.5% and 104.52%; Growth Percent [24]: 112.6% and 112.63%; Growth Percent [25]: 111.2% and 111.26%; Growth Percent [26]: 98.0% and 98.02%; Growth Percent [27]: 102.8%; Growth Percent [28]: 104.0% and 104.06%; Growth Percent [29]: 102.1% and 102.14%; Growth Percent [30]: 102.7% and 102.77%; Growth Percent [31]: 102.0% and 102.06%; Growth Percent [32]: 102.3% and 102.36%; Growth Percent [33]: 106.5%; Growth Percent [34]: 107.2%; Growth Percent [35]: 105.2% and 105.23%; Growth Percent [36]: 103.5% and 103.52%; Growth Percent [37]: 104.3% and 104.35%
COc1cccc(NC(=O)Nc2ccc(Nc3ncnc4sc(C(=O)NO)c(C)c34)cc2)c1 [Compound 7b, 1–(4-(6-(hydroxycarbamoyl)-5-methylthieno[2,3-d]pyrimidin-4-ylamino)phenyl)-3–(3-methoxyphenyl)urea]	112.4% and 112.45%	94.5% and 94.51%	97.6% and 97.67%	93.3% and 93.33%	99.4% and 99.45%	103.7%	101.4% and 101.41%	96.6% and 96.69%	100.7% and 100.73%	94.1% and 94.14%	90.2% and 90.28%	92.8% and 92.81%	114.4% and 114.44%	111.1% and 111.16%	115.8% and 115.82%	102.4% and 102.45%	101.2% and 101.24%	99.5% and 99.59%	102.7% and 102.72%	100.1% and 100.14%	Growth Percent [21]: 99.5% and 99.56%; Growth Percent [22]: 95.2% and 95.27%; Growth Percent [23]: 101.6% and 101.62%; Growth Percent [24]: 101.9% and 101.92%; Growth Percent [25]: 103.1% and 103.17%; Growth Percent [26]: 97.2% and 97.26%; Growth Percent [27]: 103.1% and 103.15%; Growth Percent [28]: 94.5% and 94.51%; Growth Percent [29]: 103.7% and 103.71%; Growth Percent [30]: 99.1% and 99.12%; Growth Percent [31]: 104.4%; Growth Percent [32]: 96.7% and 96.74%; Growth Percent [33]: 106.5% and 106.55%; Growth Percent [34]: 103.9% and 103.96%; Growth Percent [35]: 101.2% and 101.22%; Growth Percent [36]: 101.6% and 101.65%; Growth Percent [37]: 101.8% and 101.81%

— article PMC8253220, “Molecular design, synthesis and in vitro biological evaluation of thienopyrimidine–hydroxamic acids as chimeric kinase HDAC inhibitors: a challenging approach to combat cancer” (Journal of Enzyme Inhibition and Medicinal Chemistry, 2021)
